Test results reported in ChEMBL document CHEMBL3871261, “Novel pyrazolo[3,4-d]pyrimidines as dual Src-Abl inhibitors active against mutant form of Abl and the leukemia K-562 cell line” (Eur J Med Chem, 2016).

Legend:
[1] = Cytotoxicity against human K562 cells assessed as decrease in cell viability by MTT assay; format: functional
[2] = species: Homo sapiens; assay: Inhibition of recombinant PI3K (unknown origin) assessed as residual activity at 100 uM by [gamma-32P]ATP based assay
[3] = molecular target: Tyrosine-protein kinase ABL1 (Homo sapiens, UniProt P00519); assay: Inhibition of wild type recombinant human Abl using abtide as substrate by [gamma-32P]ATP based assay
Sequence of Tyrosine-protein kinase ABL1 (P00519 whole entry): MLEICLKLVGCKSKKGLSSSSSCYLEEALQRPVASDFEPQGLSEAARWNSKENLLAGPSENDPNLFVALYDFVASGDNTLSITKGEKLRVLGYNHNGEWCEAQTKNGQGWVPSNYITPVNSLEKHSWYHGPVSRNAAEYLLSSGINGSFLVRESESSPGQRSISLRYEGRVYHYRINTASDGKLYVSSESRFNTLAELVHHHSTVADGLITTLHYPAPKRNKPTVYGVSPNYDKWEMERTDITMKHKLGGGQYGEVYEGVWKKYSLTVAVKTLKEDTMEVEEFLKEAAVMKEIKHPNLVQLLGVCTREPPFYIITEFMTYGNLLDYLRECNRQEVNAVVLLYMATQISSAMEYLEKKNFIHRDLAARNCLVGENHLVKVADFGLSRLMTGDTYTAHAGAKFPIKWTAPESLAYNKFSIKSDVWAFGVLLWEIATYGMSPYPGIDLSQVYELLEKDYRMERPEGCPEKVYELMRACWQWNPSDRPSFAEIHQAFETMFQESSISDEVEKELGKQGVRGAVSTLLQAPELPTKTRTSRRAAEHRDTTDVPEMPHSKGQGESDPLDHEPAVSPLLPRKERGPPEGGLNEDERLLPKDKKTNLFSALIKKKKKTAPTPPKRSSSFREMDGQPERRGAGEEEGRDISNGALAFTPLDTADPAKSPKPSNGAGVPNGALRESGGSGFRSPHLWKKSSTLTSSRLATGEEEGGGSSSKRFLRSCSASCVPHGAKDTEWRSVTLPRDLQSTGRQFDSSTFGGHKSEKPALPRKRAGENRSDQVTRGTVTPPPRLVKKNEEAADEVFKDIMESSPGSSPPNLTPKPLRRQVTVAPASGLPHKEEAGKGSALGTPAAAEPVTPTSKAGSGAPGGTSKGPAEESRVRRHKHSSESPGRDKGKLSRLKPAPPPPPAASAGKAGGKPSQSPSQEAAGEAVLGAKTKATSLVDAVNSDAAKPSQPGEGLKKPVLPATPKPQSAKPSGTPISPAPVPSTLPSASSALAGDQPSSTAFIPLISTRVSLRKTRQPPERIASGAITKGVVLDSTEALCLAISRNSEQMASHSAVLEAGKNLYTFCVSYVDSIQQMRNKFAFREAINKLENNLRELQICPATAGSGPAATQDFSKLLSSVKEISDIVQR

Row | Structure (SMILES) | Activity [2] | IC50 [3] | CC50 [1]
1 | NNc1nc2c(cnn2-c2ccccc2)c(=O)n1-c1ccccc1 | – | – | 2370 nM
2 | O=c1c2cnn(-c3ccccc3)c2n2c(-c3ccccc3)nnc2n1-c1ccccc1 | 82% | – | 920 nM
3 | O=C(NNc1nc2c(cnn2-c2ccccc2)c(=O)n1-c1ccccc1)c1ccc(Cl)cc1 | – | – | 860 nM
4 | Cc1nc(Nc2ncc(C(=O)Nc3c(C)cccc3Cl)s2)cc(N2CCN(CCO)CC2)n1 [DASATINIB] | – | – | 250 nM
5 | O=c1c2cnn(-c3ccccc3)c2n2c(Nc3ccccc3)nnc2n1-c1ccccc1 | – | 150000 nM | 4920 nM

The next lines start with results.

Row | Activity [2] | IC50 [3] | Structure (SMILES) | CC50 [1]
6 | 80% | – | COc1ccc(C(=O)NNc2nc3c(cnn3-c3ccccc3)c(=O)n2-c2ccccc2)cc1 | 50 nM
7 | 100% | – | O=C(NNc1nc2c(cnn2-c2ccccc2)c(=O)n1-c1ccccc1)c1ccccc1 | 70 nM
8 | 90% | – | COc1ccc(-c2nnc3n(-c4ccccc4)c(=O)c4cnn(-c5ccccc5)c4n23)cc1 | 1060 nM
9 | – | 110000 nM | O=c1c2cnn(-c3ccccc3)c2nc(N/N=C/c2ccc(F)cc2)n1-c1ccccc1 | 4060 nM
